The values that follow come from patent publication US20240423207A1, “PICOLINAMIDE COMPOUNDS WITH FUNGICIDAL ACTIVITY” (CORTEVA AGRISCIENCE LLC, priority 2014, published 2024).

The subject of experiment [1] is Mycosphaerella graminicola; Anamorph: Septoria tritici. The experiment in a line: Leaf Blotch of Wheat (SEPTTR) fungicidal activity on wheat seedlings. Format: in vivo. As to conditions: Zymoseptoria tritici; for pest or weed control at 100 ppm: High Volume; for pest or weed control at 121.5 g/ha: Low Volume, 121.5 g/H. How it is done:
Example A: Evaluation of Fungicidal Activity: Leaf Blotch of Wheat (Mycosphaerella graminicola; Anamorph: Septoria tritici; Bayer code […]): Technical grades of materials were dissolved in acetone, which were then mixed with nine volumes of water (H2O) containing 110 ppm Triton X-100. The fungicide solutions were applied onto wheat seedlings using an automated booth sprayer to run-off. All sprayed plants were allowed to air dry prior to further handling. All fungicides were evaluated using the aforementioned method for their activity vs. all target diseases, unless stated otherwise. Wheat leaf blotch and brown rust activity were also evaluated using track spray applications, in which case the fungicides were formulated as EC formulations, containing 0.1% Trycol 5941 in the spray solutions. Wheat plants (variety Yuma) were grown from seed in a greenhouse in 50% mineral soil/50% soil-less Metro mix until the first leaf was fully emerged, with 7-10 seedlings per pot. These plants were inoculated with an aqueous spore suspension of Septoria tritici either prior to or after fungicide treatments. After inoculation the plants were kept in 100% relative humidity (one day in a dark dew chamber followed by two to three days in a lighted dew chamber at 20° C.) to permit spores to germinate and infect the leaf. The plants were then transferred to a greenhouse set at 20° C. for disease to develop. When disease symptoms were fully expressed on the 1st leaves of untreated plants, infection levels were assessed on a scale of 0 to 100 percent disease severity. Percent disease control was calculated using the ratio of disease severity on treated plants relative to untreated plants.

Experiment [2] has as its system Puccinia triticina; Synonym: Puccinia recondita f sp. tritici. The experiment in a line: Wheat Brown Rust (PUCCRT) fungicidal activity on wheat seedlings. Format: in vivo. Particulars: for pest or weed control at 100 ppm: High Volume; for pest or weed control at 121.5 g/ha: Low Volume, 121.5 g/H. How it is done:
Technical grades of materials were dissolved in acetone, which were then mixed with nine volumes of water (H2O) containing 110 ppm Triton X-100. The fungicide solutions were applied onto wheat seedlings using an automated booth sprayer to run-off. All sprayed plants were allowed to air dry prior to further handling. All fungicides were evaluated using the aforementioned method for their activity vs. all target diseases, unless stated otherwise. Wheat leaf blotch and brown rust activity were also evaluated using track spray applications, in which case the fungicides were formulated as EC formulations, containing 0.1% Trycol 5941 in the spray solutions. Wheat plants (variety Yuma) were grown from seed in a greenhouse in 50% mineral soil/50% soil-less Metro mix until the first leaf was fully emerged, with 7-10 seedlings per pot. These plants were inoculated with an aqueous spore suspension of Septoria tritici either prior to or after fungicide treatments. After inoculation the plants were kept in 100% relative humidity (one day in a dark dew chamber followed by two to three days in a lighted dew chamber at 20° C.) to permit spores to germinate and infect the leaf. The plants were then transferred to a greenhouse set at 20° C. for disease to develop. When disease symptoms were fully expressed on the 1st leaves of untreated plants, infection levels were assessed on a scale of 0 to 100 percent disease severity. Percent disease control was calculated using the ratio of disease severity on treated plants relative to untreated plants. Example B: Evaluation of Fungicidal Activity: Wheat Brown Rust (Puccinia triticina; Synonym: Puccinia recondita f sp. tritici; Bayer code PUCCRT): Wheat plants (variety Yuma) were grown from seed in a greenhouse in 50% mineral soil/50% soil-less Metro mix until the first leaf was fully emerged, with 7-10 seedlings per pot. These plants were inoculated with an aqueous spore suspension of Puccinia triticina either prior to or after fungicide treatments. After inoculation the plants were kept in a dark dew room at 22° C. with 100% relative humidity overnight to permit spores to germinate and infect the leaf. The plants were then transferred to a greenhouse set at 24° C. for disease to develop. Fungicide formulation, application and disease assessment followed the procedures as described in the Example A.

Setting [3] is: 24 h, 1 Day Protectant, read-out: SEPTTR 1DP disease control.
Setting [4] is: 72 h, 3 Day Curative, read-out: SEPTTR 3DC disease control.
Where [5] appears, read: 24 h, 1 Day Protectant, read-out: PUCCRT 1DP disease control.
The mark [6] stands for this setting: 72 h, 3 Day Curative, read-out: PUCCRT 3DC disease control.

Read-outs that look alike come from different tables or passages of the source.

For the compound `COc1ccnc(C(=O)N[C@@H](C)C(=O)O[C@@H](C)[C@@H](c2ccccc2)c2ccc(F)cc2)c1O` [Cmpd 125], the pest or weed control at 100 ppm in experiment [1] (setting [3]), in experiment [1] (setting [4]), in experiment [2] (setting [5]) and in experiment [2] (setting [6]) was more than 80% throughout.
For `COc1ccnc(C(=O)N[C@@H](C)C(=O)O[C@@H](C)C(c2ccc(Cl)cc2)c2ccc(Cl)cc2)c1O` [Cmpd 107], the pest or weed control at 100 ppm in experiment [1] (setting [3]) is more than 80%; in experiment [1] (setting [4]), more than 80%; in experiment [2] (setting [5]), more than 80%; in experiment [2] (setting [6]) it was less than 80%.
As for `COc1ccnc(C(=O)N[C@@H](C)C(=O)O[C@@H](C)C(c2ccc(Cl)c(C)c2)c2ccc(Cl)c(C)c2)c1OCOC(C)=O` [Cmpd 203], the pest or weed control at 121.5 g/ha is more than 80% in experiment [1] (setting [3]), more than 80% in experiment [1] (setting [4]), more than 80% in experiment [2] (setting [5]) and less than 80% in experiment [2] (setting [6]).
Consider `COc1ccnc(C(=O)N[C@@H](C)C(=O)O[C@@H](C)C(c2ccc(C)s2)c2ccc(C)s2)c1O` [Cmpd 104], for which the values for the pest or weed control at 100 ppm in experiment [1] (setting [3]), in experiment [1] (setting [4]) and in experiment [2] (setting [5]) were less than 80%, more than 80% and more than 80%, respectively.
As to `COc1ccnc(C(=O)N[C@@H](C)C(=O)OC(C)C2c3ccccc3-c3ccccc32)c1OCOC(C)=O` (some centres unmarked) [Cmpd 163], the pest or weed control at 121.5 g/ha in experiment [1] (setting [3]) is less than 80%; in experiment [1] (setting [4]), more than 80%; in experiment [2] (setting [5]) it was less than 80%.
Turning to `COc1ccnc(C(=O)NCC(=O)O[C@@H](C)C(c2ccc(F)cc2)c2ccc(F)cc2)c1OCOC(C)=O` [Cmpd 183], the pest or weed control at 121.5 g/ha in experiment [1] (setting [3]) is more than 80%; in experiment [1] (setting [4]), less than 80%; in experiment [2] (setting [5]), more than 80%; in experiment [2] (setting [6]) it was more than 80%.
On to `COc1ccnc(C(=O)N[C@@H](C)C(=O)O[C@@H](C)C(c2ccc(-c3ccccc3)cc2)c2ccc(-c3ccccc3)cc2)c1O` [Cmpd 109], for which the pest or weed control at 100 ppm in experiment [1] (setting [4]) and in experiment [2] (setting [5]) was less than 80% in each case.
Regarding `COc1ccnc(C(=O)N[C@@H](C)C(=O)O[C@@H](C)C(c2ccc(F)cc2)c2ccc(F)cc2)c1O` [Cmpd 92], the pest or weed control at 100 ppm in experiment [1] (setting [3]), in experiment [1] (setting [4]), in experiment [2] (setting [5]) and in experiment [2] (setting [6]) was more than 80% in each case.
Regarding `COc1ccnc(C(=O)N[C@@H](C)C(=O)O[C@@H](C)C(c2ccc(Cl)c(C)c2)c2ccc(Cl)c(C)c2)c1OC(C)=O` [Cmpd 206], the pest or weed control at 121.5 g/ha is more than 80% in experiment [1] (setting [3]), more than 80% in experiment [1] (setting [4]), more than 80% in experiment [2] (setting [5]) and less than 80% in experiment [2] (setting [6]).
Consider `COc1cccc(C(c2cccc(OC)c2)[C@H](C)OC(=O)[C@H](C)NC(=O)c2nccc(OC)c2OCOC(C)=O)c1` [Cmpd 192], for which the pest or weed control at 121.5 g/ha in experiment [1] (setting [3]), in experiment [1] (setting [4]), in experiment [2] (setting [5]) and in experiment [2] (setting [6]) was more than 80% throughout.
`COc1ccnc(C(=O)N[C@H](C(=O)O[C@@H](C)C(c2ccc(F)cc2)c2ccc(F)cc2)C(C)C)c1OC(C)=O` [Cmpd 189]: the pest or weed control at 121.5 g/ha in experiment [1] (setting [3]) is more than 80%; in experiment [1] (setting [4]), more than 80%; in experiment [2] (setting [5]), more than 80%; in experiment [2] (setting [6]), less than 80%.
Turning to `COc1ccnc(C(=O)N[C@@H](C)C(=O)O[C@@H](C)C(c2ccc(Br)cc2)c2ccc(Br)cc2)c1OCOC(C)=O` [Cmpd 169], the pest or weed control at 121.5 g/ha in experiment [1] (setting [3]) is more than 80%; in experiment [1] (setting [4]), more than 80%; in experiment [2] (setting [5]), more than 80%; in experiment [2] (setting [6]), less than 80%.
As to `COc1ccnc(C(=O)N[C@@H](C)C(=O)O[C@@H](C)C(c2ccc(F)c(Cl)c2)c2ccc(F)c(Cl)c2)c1OCOC(C)=O` [Cmpd 219], the pest or weed control at 121.5 g/ha in experiment [1] (setting [3]), in experiment [1] (setting [4]) and in experiment [2] (setting [5]) was more than 80% throughout.
For the compound `COc1cccc(C(c2cccc(OC)c2)[C@H](C)OC(=O)[C@H](C)NC(=O)c2nccc(OC)c2O)c1` [Cmpd 118], the pest or weed control at 100 ppm was less than 80% in experiment [1] (setting [3]), more than 80% in experiment [1] (setting [4]), more than 80% in experiment [2] (setting [5]) and more than 80% in experiment [2] (setting [6]).
Consider `COc1ccnc(C(=O)N[C@@H](C)C(=O)O[C@@H](C)C(c2ccc(C)c(F)c2)c2ccc(C)c(F)c2)c1OCOC(C)=O` [Cmpd 194], for which the pest or weed control at 121.5 g/ha was more than 80% in experiment [1] (setting [3]), more than 80% in experiment [1] (setting [4]), more than 80% in experiment [2] (setting [5]) and less than 80% in experiment [2] (setting [6]).
`COc1ccnc(C(=O)N[C@@H](C)C(=O)O[C@@H](C)C(c2cccc(F)c2)c2cccc(F)c2)c1OCOC(C)=O` [Cmpd 159]: the pest or weed control at 121.5 g/ha in experiment [1] (setting [3]), in experiment [1] (setting [4]), in experiment [2] (setting [5]) and in experiment [2] (setting [6]) was more than 80% each time.
Turning to `CC(=O)OCOc1ccccc1C(=O)N[C@@H](C)C(=O)O[C@@H](C)C(c1ccc(F)cc1)c1ccc(F)cc1` [Cmpd 180], the pest or weed control at 121.5 g/ha in experiment [1] (setting [3]) is less than 80%.
Same read-out and setting: as for `COc1ccnc(C(=O)N[C@@H](C)C(=O)OC(C)C2c3ccccc3Oc3ccccc32)c1OCOC(C)=O` (some centres unmarked) [Cmpd 164], the figure is less than 80%.
With `COc1ccnc(C(=O)N[C@@H](C)C(=O)O[C@@H](C)C(O)(c2ccccc2F)c2ccccc2F)c1OCOC(C)=O` [Cmpd 196], the pest or weed control at 121.5 g/ha is more than 80% in experiment [1] (setting [3]) and less than 80% in experiment [1] (setting [4]).
Take `COc1ccnc(C(=O)N[C@@H](C)C(=O)O[C@@H](C)C(O)(c2ccccc2F)c2ccccc2F)c1O` [Cmpd 122]: the pest or weed control at 100 ppm in experiment [1] (setting [3]) and in experiment [1] (setting [4]) was less than 80% each time.
`COc1ccnc(C(=O)N[C@@H](C)C(=O)O[C@@H](C)C(O)(c2ccc(Cl)c(F)c2)c2ccc(Cl)c(F)c2)c1OCOC(C)=O` [Cmpd 202]: the pest or weed control at 121.5 g/ha in experiment [1] (setting [3]) and in experiment [1] (setting [4]) was more than 80% each time.
Consider `COc1ccnc(C(=O)N[C@@H](C)C(=O)O[C@@H](C)C(c2ccc(-c3ccccc3)cc2)c2ccc(-c3ccccc3)cc2)c1OCOC(C)=O` [Cmpd 181], for which the pest or weed control at 121.5 g/ha in experiment [1] (setting [3]) and in experiment [1] (setting [4]) was less than 80% in each case.
As to `COc1ccnc(C(=O)N[C@@H](C)C(=O)OC(C)C2c3ccccc3-c3ccccc32)c1O` (some centres unmarked) [Cmpd 101], the pest or weed control at 100 ppm in experiment [1] (setting [3]) was less than 80%.
`COc1ccnc(C(=O)N[C@@H](C)C(=O)O[C@@H](C)C(O)(c2ccc(Cl)cc2F)c2ccc(Cl)cc2F)c1O` [Cmpd 119]: the pest or weed control at 100 ppm is more than 80% in experiment [1] (setting [3]) and less than 80% in experiment [1] (setting [4]).
In the case of `COc1ccnc(C(=O)N[C@@H](C)C(=O)OC(C)C2c3ccccc3Oc3ccccc32)c1OC(C)=O` (some centres unmarked) [Cmpd 162], the pest or weed control at 121.5 g/ha in experiment [1] (setting [4]) was less than 80%.
In the case of `COc1ccnc(C(=O)N[C@@H](C)C(=O)OC(C)C2c3ccccc3-c3ccccc32)c1OC(C)=O` (some centres unmarked) [Cmpd 161], the pest or weed control at 121.5 g/ha in experiment [1] (setting [3]) is less than 80%; in experiment [1] (setting [4]) it was more than 80%.
Take `C[C@H](NC(=O)c1ccccc1O)C(=O)O[C@@H](C)C(c1ccc(F)cc1)c1ccc(F)cc1` [Cmpd 112]: the pest or weed control at 100 ppm in experiment [1] (setting [3]) and in experiment [1] (setting [4]) was less than 80% throughout.
